In patent US20230390215A1 (AgoneX Biopharmaceuticals, Inc., priority 2021, published 2023):

Assays:
[1] = test system: subject suffering from migraine headaches
Description: The patch is applied to the subject's skin for 4 hours. […] The size of the patch can vary from ¼ inch by ¼ inch to 1 inch by 1 inch depending on the desired dosage to be administered.
A subject suffering from migraine headaches is administered a 2″×2″ patch with a gel concentration of 30 μg/ml over a 24 hour period.
A subject suffering from migraine headaches is administered a 2″×2″ patch with a gel concentration of 2.7 μg/ml over a 24 hour period.

[2] = test system: subject suffering from Alzheimer's disease; settings: Example 4: transdermal patch, 10 μg/mL, applied every day for two hours a day over a month
Description: A subject suffering from Alzheimer's disease is treated with a transdermal patch as described herein. […] The treatment regimen occurred over the course of a month.

Structure (SMILES): Cl.Cl.NCCc1c[nH]cn1 [histamine dihydrochloride]
- migraine events ([1]; Example 3: transdermal patch comprising 30 μg/mL, applied to skin for 4 hours during a migraine event): treated or reduced
- migraine headaches (intensity and duration) ([1]; Example 6: 2″×2″ patch, gel concentration 2.7 μg/ml, 24 hour period): reduced in both intensity and duration
- Alzheimer's disease symptoms [2]: treated or reduced
